What was measured:
[1] = system: transformed human (HeLa, BT20, HCC 1419, PC-3) and rodent (C6, B16) cell lines; experiment: Cell viability by crystal violet assay, tumor cell line panel; assay type: cell-based, rat, mouse; conditions: 24 h
Description: Rat glioma C6 and human glioblastoma U251 cell lines were a kind gift from Dr. Pedro Tranque (Universidad de Castilla-La Mancha, Albacete, Spain), murine melanoma B 16, and human adenocarcinoma HeLa, were a kind gift from Dr. Sinisa Radulovic (Institute for Oncology and Radiology of Serbia, Belgrade, Serbia) while mouse fibrosarcoma L929 was obtained from the European Collection of Animal Cell Cultures (Salisbury, UK). Human breast HCC1419 and prostate PC-3 cells were purchased from LGC Promochem srl (Venezia, Italy). Primary mouse fibroblasts and rat astrocytes were prepared as described (Mijatovic et al. 2004). Cells were grown in HEPES-buffered RPMI 1640 medium supplemented with 5% FCS, 2 mM glutamine, 0.01% sodium pyruvate, 5×10^−5 M 2-mercaptoethanol, and antibiotics (culture medium) at 37° C. in a humidified atmosphere with 5% CO2. After the conventional trypsinization procedure cells were seeded at 1×10^4/well in 96-well, 2×10^5/well in 6-well plate or 3×10^4/well in 4-well chamber slide, cultivated overnight, and then exposed to drug. […]
Reduction of 3-4,5-dimethylthiazol-2-yl)-2,5-diphenyltetrazolium bromide (MTT) to formazan depends on mitochondrial activity of cultured cells, absorption of crystal violet dye correlates with the number of adherent, live cells, while the release of cytosolic lactate dehydrogenase (LDH) indicates the disruption of membrane integrity caracteristic for necrotic cells. […] Mitohondrial-dependent production of formazan and intensity of absorbed crystal violet by adherent cells were assessed by an automated microplate reader at 570 nm, while the pyruvate-mediated conversion of 2,4-dinitrophenylhydrazine into visible hydrazone precipitate in LDH assay was measured at 492 nm. The % of cytotoxicity as indicated by LDH release was calculated as: (E−C)/(T−C)×100, where E is the experimental absorbance of cell cultures, C is the control absorbance of cell-free culture medium, and T is the absorbance corresponding to the maximal (100%) LDH release of Triton-lysed cells.
FIG. 2. […] Cell viability was then evaluated by CV test. […]

C6 cells = experiment: Differentiation markers by cell-based ELISA, C6; parameters: species or system rat; conditions: 18.8 μM, 24 h
Description: A slightly modified method for cell-based ELISA (cELISA) by Versteeg (Versteed et al., 2000) was used to measure the expression of galactocerebroside, glial fibrilar acidic protein (GFAP), myelin basic protein (MBP), cyclin D3, p53 and p-AKT. Briefly, at the end of cultivation period cells were fixed in 4% paraformaldehyde, endogenous peroxydase was quenched with 1% H2O2 in PBS containing 0.1% Triton X-100 (PBST), and unspecific binding of antibodies blocked with PBST solution containing 10% FCS. Primary mouse monoclonal antibodies specific for rat/mouse p-Akt (1:200; Santa Cruz Biotechnology, Santa Cruz, Calif.), GFAP (1:200, BioYeda, Israel.), galactocerebroside (1:100; Boehringer Mannheim, Mannheim, Germany), MBP (1:100, Boehringer Mannheim, Mannheim, Germany), cyclin D3 (1:750, Santa Cruz Biotechnology, Santa Cruz, Calif.) and p53 (1:250, Santa Cruz Biotechnology, Santa Cruz, Calif.) were applied in PBST supplemented with 2% bovine serum albumin (PBSTB), followed by secondary peroxidase-conjugated goat anti-mouse IgG (1:2500 in PBSTB; GE Healthcare UK) for anti-GFAP and galactocerebroside or anti-rabbit IgG (1:2500, Healthcare UK) for anti-p-Akt, anti-cyclin D3 and anti-p53. All incubations were performed at 37° C. for 1 h. The absorbance at 450 nm was measured in an automated microplate reader 15 min after incubation with peroxydase substrate TMB and subsequently to addition of 0.1 M HCl. To facilitate comparison between treatments, the obtained absorbances were corrected for the cell number that was determined by crystal violet staining, as described in the original protocol. The results are presented as relative expression in comparison with the control value.
FIG. 5. […] Cell morphology was assessed by light microscopy (A). Markers of cell differentiation of C6 and B16 cells, galactocerebroside, GFAP and MBP were determined by cELISA and melanin and tyrosinase activity were determined as described in material and methods (B). Cyclin D3 and p53 expression were evaluated by cELISA (C, upper panels), immunocytochemistry (C, middle panel) and Western blot (C, lower panel). The results were presented as mean±SD from three independent experiments. *p<0.05, refers to untreated cultures.

p-Akt in B16 cells = experiment: Akt phosphorylation (cELISA, Western blot), B16; assay type: cell-based, mouse; conditions: 18.8 μM, B16 as representative (similar in C6)
Description: A slightly modified method for cell-based ELISA (cELISA) by Versteeg (Versteed et al., 2000) was used to measure the expression of galactocerebroside, glial fibrilar acidic protein (GFAP), myelin basic protein (MBP), cyclin D3, p53 and p-AKT. Briefly, at the end of cultivation period cells were fixed in 4% paraformaldehyde, endogenous peroxydase was quenched with 1% H2O2 in PBS containing 0.1% Triton X-100 (PBST), and unspecific binding of antibodies blocked with PBST solution containing 10% FCS. […] The absorbance at 450 nm was measured in an automated microplate reader 15 min after incubation with peroxydase substrate TMB and subsequently to addition of 0.1 M HCl. To facilitate comparison between treatments, the obtained absorbances were corrected for the cell number that was determined by crystal violet staining, as described in the original protocol. […]
FIG. 6. […] (C) B16 cells (1×10^4 cells/well) were incubated for 24 h with 18.8 μM Saq-NO2 with or without Akt VI (50μg/ml) or 3-MA (1 mM) and cell viability was assessed by MTT. […]

Row | Structure (SMILES) | anti-tumor potential (viability of tumor cell lines) [1] | expression of GFAP (C6 cells) | expression of galactocerebroside (C6 cells) | p-Akt expression / phosphorylation of AKT (p-Akt in B16 cells) | IC50 value relative to the parent drug ([1]; tumor cell lines)
1 | CC(C)(C)NC(=O)[C@@H]1C[C@@H]2CCCC[C@@H]2CN1C[C@@H](O)[C@H](Cc1ccccc1)NC(=O)[C@H](CC(N)=O)NC(=O)c1ccc2ccccc2n1 [Saq, Saquinavir, reference compound] | strong anti-tumor potential | decreased or unchanged | strongly up regulated | abrogated p-Akt expression | –
2 | CC(C)(C)NC(=O)[C@@H]1C[C@@H]2CCCC[C@@H]2CN1C[C@@H](O[N+](=O)[O-])[C@H](Cc1ccccc1)NC(=O)[C@H](CC(N)=O)NC(=O)c1ccc2ccccc2n1 [Saq-NO2, nitric ester of Saquinavir] | strong anti-tumor potential | decreased or unchanged | strongly up regulated | induced considerable transient phosphorylation of AKT | two to four fold lower
